The record followed here is patent publication US7709475B2, “Selective inhibitors against Cdk4 and Cdk6 having aminothiazole skeleton” (Banyu Pharmaceutical Co., Ltd., priority 2004, dated 2010).

In one assay the test system is JURKAT. Kind of assay: Inhibitory action against cell proliferation (WST-8), JURKAT. The assay is classed as cell-based. To be noted: Homo sapiens, 72 h, Jurkat cells, 3 days culture, read-out: concentration for 50% inhibition of cell proliferation (IC50), Jurkat. On the procedure: Clinically isolated cancer cell lines EOL-1, KU812 and JURKAT were cultured in RPMI1640 medium containing 10% fetal calf serum at 37° C. in the presence of 5% CO2 under an atmosphere of saturated steam.
The inhibitory action against cell proliferation was measured by modifying the method of Skehan et al. [J. Natl. Cancer Inst., Vo. 82, 1107-1112 (1990)] according to the method of Ishiyama et al. [Talanta, Vol. 44, 1299 (1997)]. 100 μL each of cell culture medium containing 1×10^3 live cells of EOL-1, KU812 and JURKAT, respectively, was dispensed into each well of a 96-well cell culture dish, and the cells were cultured overnight. On the next day, a dilution series of solutions in DMSO was prepared from a DMSO solution of the compound of each Example. Then, the dilution series of solutions or DMSO only as a control for no drug addition were separately added to the medium for cell culture. Finally, 100 μL each of the culture medium containing either the dilution series of solutions of the compounds or DMSO only, was added to the cells which had been cultured in a 96-well dish, and then the cells were further cultured for 3 days.
After adding 20 μL each of WST-8 (Kishida Chemical Co., Ltd.) to each well and culturing the cells for another 2 hours, the optical densities at 450 nm were measured against a reference wavelength of 650 nm, and were compared with the control group. The results obtained by determining the concentrations for 50% inhibition of cell proliferation (IC50 (nM)) of the compounds of Examples are presented in the following Table 4.

In a further assay the target is T1, cyclin D2-Cdk6 (Homo sapiens, UniProt Q00534).
T1 construct: made in house; host or cells: insect cell Sf9 (baculovirus)
T1 sequence (Q00534 whole entry): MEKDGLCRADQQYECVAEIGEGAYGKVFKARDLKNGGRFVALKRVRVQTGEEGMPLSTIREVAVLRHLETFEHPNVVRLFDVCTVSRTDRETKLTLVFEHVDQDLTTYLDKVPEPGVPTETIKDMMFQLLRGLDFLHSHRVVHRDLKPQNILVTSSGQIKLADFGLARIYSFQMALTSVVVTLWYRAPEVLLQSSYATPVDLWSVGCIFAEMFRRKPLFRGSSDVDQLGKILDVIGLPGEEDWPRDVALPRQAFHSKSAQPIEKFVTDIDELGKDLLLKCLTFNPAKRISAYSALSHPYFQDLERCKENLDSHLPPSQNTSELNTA
T1 sequence (P30279 whole entry partner): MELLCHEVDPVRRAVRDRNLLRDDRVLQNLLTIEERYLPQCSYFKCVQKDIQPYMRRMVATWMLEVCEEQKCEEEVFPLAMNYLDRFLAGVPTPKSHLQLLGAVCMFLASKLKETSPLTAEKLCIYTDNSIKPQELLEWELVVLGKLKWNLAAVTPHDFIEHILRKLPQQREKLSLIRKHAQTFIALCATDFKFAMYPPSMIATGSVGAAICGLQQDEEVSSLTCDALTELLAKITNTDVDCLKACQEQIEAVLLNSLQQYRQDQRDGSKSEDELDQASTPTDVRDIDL
The assay can be described thus: Cdk6 inhibitory action: cyclin D2-Cdk6 kinase activity. The assay is classed as biochemical. To be noted: for K1/K6, selectivity for Cdk6 against Cdk1: IC50 of Cdk1 divided by IC50 of Cdk6; for K2/K6, selectivity for Cdk6 against Cdk2: IC50 of Cdk2 divided by IC50 of Cdk6; for K5/K6, selectivity for Cdk6 against Cdk5: IC50 of Cdk5 divided by IC50 of Cdk6; for K7/K6, selectivity for Cdk6 against Cdk7: IC50 of Cdk7 divided by IC50 of Cdk6; for K9/K6, selectivity for Cdk6 against Cdk9: IC50 of Cdk9 divided by IC50 of Cdk6; for IC50: cyclin D2-Cdk6, 50 μM ATP. The source says:
In the same manner as in the case of cyclin D2-Cdk4, the cDNA of Cdk6, and the cDNA of a fusion protein of cyclin D2, an activating factor of Cdk6, and glutathione S-transferase, were integrated into a baculovirus expression vector to prepare a recombinant baculovirus. This was co-transfected into insect cell Sf9 to express an active complex of the cyclin D2/glutathione S-transferase fusion protein-Cdk6 at a high level. The cells were recovered and solubilized, then the active complex was adsorbed onto Glutathione Sepharose, and a cyclin D2-Cdk6 complex was recovered using Precision Protease and was purified by HPLC column chromatography.
For the measurement of the activity of cyclin D2-Cdk6, a synthetic peptide (Arg-Pro-Pro-Thr-Leu-Ser-Pro-Ile-Pro-His-Ile-Pro-Arg) was used as the substrate.
(§1) The reaction was performed by partially modifying the method of Kitagawa et al. [Oncogene, Vol. 7, 1067-1074 (1992)]. The volume of the reaction solution was 21.1 μL, and to the R buffer, purified cyclin D2-Cdk6, 100 μM of the substrate peptide, 50 μM of non-labeled adenosine triphosphate (ATP), and 1 μCi of [γ-33P]-labeled ATP (2000 to 4000 Ci/mmole) were added to react at 30° C. for 40 minutes. Then, 10 μL of 350 mM phosphate buffer was added to the reaction system to terminate the reaction. The substrate peptide was adsorbed onto P81 paper filter on a 96-well plate, and then washed several times with 75 mM phosphate buffer. The radioactivity of the substrate peptide was measured with a liquid scintillation counter.
Addition of the compound according to the invention to the reaction system was carried out by first preparing a dilution series of solutions of the compound in dimethylsulfoxide (DMSO), and adding 1.1 μL of the dilutions. A control was provided by adding 1.1 μL of DMSO to the reaction system.
A representative compound of the compounds according to the invention was selected, and the IC50 value of this compound for the cyclin D2-Cdk6 activity was determined.

Another assay has as its target T2, cyclin T1-Cdk9 (Homo sapiens, UniProt P50750).
T2 construct: made in house; host or cells: insect cell Sf9 (baculovirus)
Kind of assay: Cdk9 inhibitory action: cyclin T1-Cdk9 kinase activity. The assay is classed as biochemical. To be noted: cyclin T1-Cdk9, 50 μM ATP.
Excerpt: The cDNA of Cdk9, and the cDNA of a fusion protein of cyclin T1, an activating factor of Cdk9, and glutathione S-transferase, were integrated into a baculovirus expression vector to prepare a recombinant baculovirus. This was co-transfected into insect cell Sf9 to express an active complex of the cyclin T1/glutathione S-transferase fusion protein-Cdk9 at a high level. The cells were recovered and solubilized, and the active complex was adsorbed onto Glutathione Sepharose, and then was purified by elution with 10 mM reductive glutathione. The solution containing the eluted active complex was dialyzed against B buffer (composition: 20 mM Tris-hydrochloric acid buffer (pH 7.4)/200 mM sodium chloride/0.1% Tween-20/10 mM 2-mercaptoethanol/1 mM dithiothreitol/10% glycerol) to remove the reductive glutathione.
For the measurement of the activity of cyclin T1-Cdk9, a synthetic peptide ([…] was used as the substrate.
as §1, with “cyclin T1-Cdk9, 25” for “cyclin D2-Cdk6, 100”, “and 0.5” for “and 1”, “for 20” for “for 40”
Addition of the compound according to the invention to the reaction system was carried out by first preparing a dilution series of solutions of the compound in dimethylsulfoxide (DMSO), and adding […] of the dilutions. A control was provided by adding 1.1 μL of DMSO to the reaction system.
A representative compound of the compounds according to the invention was selected, and the IC50 value (nM) of this compound for the cyclin T1-Cdk9 activity was determined.

T2 sequence (P50750 whole entry): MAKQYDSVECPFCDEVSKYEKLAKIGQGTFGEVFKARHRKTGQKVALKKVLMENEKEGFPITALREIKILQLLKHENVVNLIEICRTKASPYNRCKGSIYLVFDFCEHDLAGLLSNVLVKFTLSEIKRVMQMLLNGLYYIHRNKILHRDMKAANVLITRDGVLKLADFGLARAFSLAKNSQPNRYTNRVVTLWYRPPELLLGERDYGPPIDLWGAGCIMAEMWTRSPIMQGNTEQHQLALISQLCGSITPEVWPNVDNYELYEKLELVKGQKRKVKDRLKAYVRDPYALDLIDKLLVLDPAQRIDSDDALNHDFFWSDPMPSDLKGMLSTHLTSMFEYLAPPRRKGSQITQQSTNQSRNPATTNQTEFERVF
T2 sequence (O60563 whole entry partner): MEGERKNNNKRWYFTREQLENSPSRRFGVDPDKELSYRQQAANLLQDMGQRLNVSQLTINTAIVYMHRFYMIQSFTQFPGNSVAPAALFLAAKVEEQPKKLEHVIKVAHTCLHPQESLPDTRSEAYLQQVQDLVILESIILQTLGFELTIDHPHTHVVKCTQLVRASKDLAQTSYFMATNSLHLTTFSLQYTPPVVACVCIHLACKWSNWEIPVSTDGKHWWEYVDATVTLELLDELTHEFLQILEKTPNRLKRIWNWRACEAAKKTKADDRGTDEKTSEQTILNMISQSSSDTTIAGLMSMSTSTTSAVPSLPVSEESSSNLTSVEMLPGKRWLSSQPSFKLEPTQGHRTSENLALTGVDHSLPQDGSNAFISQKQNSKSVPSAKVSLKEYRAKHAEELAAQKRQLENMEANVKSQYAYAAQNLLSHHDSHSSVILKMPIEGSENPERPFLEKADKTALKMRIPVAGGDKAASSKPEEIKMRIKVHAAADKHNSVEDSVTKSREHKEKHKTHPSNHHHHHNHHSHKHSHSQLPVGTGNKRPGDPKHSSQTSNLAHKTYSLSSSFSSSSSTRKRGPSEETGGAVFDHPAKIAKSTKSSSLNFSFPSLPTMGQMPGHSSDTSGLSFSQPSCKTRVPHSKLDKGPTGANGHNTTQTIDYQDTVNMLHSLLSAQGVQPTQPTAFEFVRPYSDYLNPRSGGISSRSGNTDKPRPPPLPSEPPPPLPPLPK

Consider `Cc1cc(-c2cnc(Nc3cnc(CN4CCN(C)CC4)cn3)s2)nc(OC2CCCCC2)n1` [Example 1, 5-[2-(cyclohexyloxy)-6-methyl-4-pyrimidinyl]-2-[5-(4-methyl-1-piperazinyl)methyl-2-pyrazinyl]amino-1,3-thiazole], for which the IC50 in the assay with JURKAT was determined as 230 nM. Also, at cyclin D2-Cdk6, the “K1/K6, selectivity for Cdk6 against Cdk1” value came out at 77; the “K2/K6, selectivity for Cdk6 against Cdk2” value came to 218; the “K5/K6, selectivity for Cdk6 against Cdk5” value is 385; the “K7/K6, selectivity for Cdk6 against Cdk7” value turned out to be 68. On cyclin D2-Cdk6, the “K9/K6, selectivity for Cdk6 against Cdk9” value worked out at 321 and the IC50 is 7.8 nM. The same molecule showed an IC50 against cyclin T1-Cdk9 of 2500 nM.
`Cc1cc(-c2cnc(Nc3cnc(CN4CCC(N(C)C)C4)cn3)s2)nc(OC2CCCCC2)n1` (stereo not drawn) [Example 13, 5-[2-(cyclohexyloxy)-6-methyl-4-pyrimidinyl]-2-[5-(3-dimethylamino-1-pyrrolidinyl)methyl-2-pyrazinyl]amino-1,3-thiazole]: the IC50 in the assay on JURKAT was found to be 170 nM. On cyclin D2-Cdk6, the “K1/K6, selectivity for Cdk6 against Cdk1” value is reported as 48; the “K2/K6, selectivity for Cdk6 against Cdk2” value is 65; the “K5/K6, selectivity for Cdk6 against Cdk5” value is given as 200; the “K7/K6, selectivity for Cdk6 against Cdk7” value is on record as 28. Also, at cyclin D2-Cdk6, the “K9/K6, selectivity for Cdk6 against Cdk9” value worked out at 33 and the IC50 stood at 13 nM. For the same molecule, on cyclin T1-Cdk9, the IC50 was determined as 430 nM.
For the molecule `Cc1cc(-c2cnc(Nc3cnc(CN4CCN(C)CC4)cn3)s2)nc(NC2CCCCC2)n1` [Example 55, 5-[2-(cyclohexylamino)-6-methyl-4-pyrimidinyl]-2-[5-(4-methyl-1-piperazinyl)methyl-2-pyrazinyl]amino-1,3-thiazole], the IC50 was determined as 5.1 nM against cyclin D2-Cdk6 and 1400 nM against cyclin T1-Cdk9.
Regarding `Cc1cc(-c2cnc(Nc3cnc(CN4CCCC4)cn3)s2)nc(SC2CCCCC2)n1` [Example 93, 5-[2-(cyclohexylthio)-6-methyl-4-pyrimidinyl]-2-[5-(1-pyrrolidinyl)methyl-2-pyrazinyl]amino-1,3-thiazole], the IC50 on cyclin D2-Cdk6 is 7.3 nM; against cyclin T1-Cdk9, 230 nM.
Consider `Cc1cc(-c2cnc(Nc3cnc(CN4CCC(N(C)C)C4)cn3)s2)nc(SC2CCCCC2)n1` (stereo not drawn) [Example 94, 5-[2-(cyclohexylthio)-6-methyl-4-pyrimidinyl]-2-[5-(3-dimethylamino-1-pyrrolidinyl)methyl-2-pyrazinyl]amino-1,3-thiazole], for which the IC50 in the assay with JURKAT was 180 nM; at cyclin D2-Cdk6, 16 nM; against cyclin T1-Cdk9, 270 nM.
In the case of `Cc1cc(-c2cnc(Nc3cnc(CNC(C)C)cn3)s2)nc(SC2CCCCC2)n1` [Example 96, 5-[2-(cyclohexylthio)-6-methyl-4-pyrimidinyl]-2-[5-(isopropylamino)methyl-2-pyrazinyl]amino-1,3-thiazole], the values for the IC50 with JURKAT, against cyclin D2-Cdk6 and at cyclin T1-Cdk9 were 140 nM, 9.3 nM and 140 nM, respectively.
In the case of `Cc1cc(-c2cnc(Nc3cnc(CNCCO)cn3)s2)nc(SC2CCCCC2)n1` [Example 99, 5-[2-(cyclohexylthio)-6-methyl-4-pyrimidinyl]-2-[5-(2-hydroxyethylamino)methyl-2-pyrazinyl]amino-1,3-thiazole], the IC50 was found to be 190 nM in the assay on JURKAT and 98 nM on cyclin T1-Cdk9.
As for `Cc1cc(-c2cnc(Nc3cnc(CN4CCN(C)CC4)cn3)s2)nc(Sc2ccccc2Cl)n1` [Example 109, 5-[2-(2-chlorophenylthio)-6-methyl-4-pyrimidinyl]-2-[5-(4-methyl-1-piperazinyl)methyl-2-pyrazinyl]amino-1,3-thiazole], the IC50 in the assay with JURKAT was 110 nM; against cyclin D2-Cdk6, 18 nM; on cyclin T1-Cdk9, 640 nM.
For `CC(=O)N1CCN(Cc2ccc(Nc3ncc(-c4cc(C)nc(OC5CCCCC5)n4)s3)nc2)CC1` [Example 125, 5-[2-(cyclohexyloxy)-6-methyl-4-pyrimidinyl]-2-[5-(4-acetyl-1-piperazinyl)methyl-2-pyridyl]amino-1,3-thiazole] the same measures were 260 nM, 17 nM and 650 nM.
Turning to `Cc1cc(-c2cnc(Nc3ccc(CN4CCC[C@H]4CO)cn3)s2)nc(NC2CCCCC2)n1` [Example 137, (2S)-5-[2-(cyclohexylamino)-6-methyl-4-pyrimidinyl]-2-[5-(2-hydroxymethyl-1-pyrrolidinyl)methyl-2-pyridyl]amino-1,3-thiazole], in the assay on JURKAT, the IC50 was 250 nM. For the same molecule, at cyclin D2-Cdk6, the “K1/K6, selectivity for Cdk6 against Cdk1” value is listed as 57; the “K2/K6, selectivity for Cdk6 against Cdk2” value was 214; the “K5/K6, selectivity for Cdk6 against Cdk5” value is recorded as 143; the “K7/K6, selectivity for Cdk6 against Cdk7” value came out at 57. At cyclin D2-Cdk6, the “K9/K6, selectivity for Cdk6 against Cdk9” value is recorded as 52 and the IC50 was found to be 21 nM. In addition, on cyclin T1-Cdk9, the IC50 was 1100 nM.
